Assay results: article PMC6572064, “Discovery of 2-(1-(3-(4-Chloroxyphenyl)-3-oxo- propyl)pyrrolidine-3-yl)-1H-benzo[d]imidazole-4-carboxamide: A Potent Poly(ADP-ribose) Polymerase (PARP) Inhibitor for Treatment of Cancer” (Molecules, 2019)
“And” between values parts separate entries of the source, which are not always exact repeats. Equal entries are not always repeated. Where two headings read alike, the source gives them in different places.

Columns and labels:
PARP-1 = target: T1, PARP-1 (Homo sapiens, UniProt P09874); assay: PARP-1 inhibition assay (PARP-1 Chemiluminescent Assay Kit, BPS Bioscience); format: biochemical; conditions: 10 nM compound
T1 construct: purchased BPS Bioscience 80569
T1 sequence (P09874 whole entry): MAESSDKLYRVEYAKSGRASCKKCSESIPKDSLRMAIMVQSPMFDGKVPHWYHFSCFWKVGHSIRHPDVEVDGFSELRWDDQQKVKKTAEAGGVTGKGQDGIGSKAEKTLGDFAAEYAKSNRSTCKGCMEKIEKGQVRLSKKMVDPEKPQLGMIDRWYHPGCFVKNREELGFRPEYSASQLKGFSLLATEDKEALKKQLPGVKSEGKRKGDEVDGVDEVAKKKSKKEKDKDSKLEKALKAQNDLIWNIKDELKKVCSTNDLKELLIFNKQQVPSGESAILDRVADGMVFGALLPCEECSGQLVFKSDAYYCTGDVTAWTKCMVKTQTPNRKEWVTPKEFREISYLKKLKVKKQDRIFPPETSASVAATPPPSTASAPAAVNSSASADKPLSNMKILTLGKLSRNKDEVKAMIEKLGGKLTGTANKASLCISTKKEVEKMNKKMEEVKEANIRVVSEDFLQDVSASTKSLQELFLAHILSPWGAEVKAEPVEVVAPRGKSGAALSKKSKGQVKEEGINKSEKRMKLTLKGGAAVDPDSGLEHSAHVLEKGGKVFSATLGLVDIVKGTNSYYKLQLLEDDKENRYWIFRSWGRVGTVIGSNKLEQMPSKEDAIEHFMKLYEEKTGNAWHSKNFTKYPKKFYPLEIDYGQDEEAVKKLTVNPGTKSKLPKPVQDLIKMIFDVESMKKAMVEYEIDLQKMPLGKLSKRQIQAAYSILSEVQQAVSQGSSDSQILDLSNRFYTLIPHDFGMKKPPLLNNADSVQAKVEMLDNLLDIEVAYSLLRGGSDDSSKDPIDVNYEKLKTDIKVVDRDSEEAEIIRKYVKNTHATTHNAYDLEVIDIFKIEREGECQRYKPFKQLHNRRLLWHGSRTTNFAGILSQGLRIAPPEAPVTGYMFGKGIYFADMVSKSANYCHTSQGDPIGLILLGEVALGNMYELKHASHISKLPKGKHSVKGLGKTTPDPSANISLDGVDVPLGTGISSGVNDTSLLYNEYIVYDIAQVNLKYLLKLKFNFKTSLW
Protocol: (§1) The PARP-1 and PARP-2 inhibition assays were performed in outsourcing, by a CRO company, Shanghai Medicilon Inc. (Shanghai, China). […] Briefly, PARP-1 or PARP-2 biotinylated substrate was incubated with compounds or solvent control at varying concentrations and an assay buffer containing the PARP-1 or PARP-2 enzyme.

PARP-2 = target: T2, PARP-2 (Homo sapiens, UniProt Q9UGN5); assay: PARP-2 inhibition assay (PARP-2 Chemiluminescent Assay Kit, BPS Bioscience); format: biochemical; conditions: 10 nM compound
T2 construct: purchased BPS Bioscience 80552
T2 sequence (Q9UGN5 whole entry): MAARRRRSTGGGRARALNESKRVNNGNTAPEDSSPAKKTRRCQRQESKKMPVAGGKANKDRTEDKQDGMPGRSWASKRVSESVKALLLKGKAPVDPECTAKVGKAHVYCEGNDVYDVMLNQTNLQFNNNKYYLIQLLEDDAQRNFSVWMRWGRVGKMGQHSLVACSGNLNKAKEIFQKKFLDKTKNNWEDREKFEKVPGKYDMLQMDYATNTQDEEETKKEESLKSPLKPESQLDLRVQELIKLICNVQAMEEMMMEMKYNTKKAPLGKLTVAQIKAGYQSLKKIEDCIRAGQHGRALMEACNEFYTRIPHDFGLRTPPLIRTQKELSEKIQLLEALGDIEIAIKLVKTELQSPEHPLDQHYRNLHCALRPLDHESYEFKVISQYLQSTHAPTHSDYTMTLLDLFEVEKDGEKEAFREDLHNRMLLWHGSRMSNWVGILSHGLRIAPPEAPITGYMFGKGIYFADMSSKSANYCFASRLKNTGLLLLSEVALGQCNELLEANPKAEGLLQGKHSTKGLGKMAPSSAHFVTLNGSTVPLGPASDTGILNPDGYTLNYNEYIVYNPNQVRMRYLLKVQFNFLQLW
Protocol: as §1

[1] = tested on: CAPAN-1 (a BRCA-2-mutated pancreatic cancer cell line); assay: Cell proliferation assay, three-day, CellTiter-Glo, CAPAN-1; format: cell-based; conditions: for Bottom / HillSlope / Top: CAPAN-1, curve fit of Inh %; for inhibition at 11.11 µM: CAPAN-1, Conc. 11.11 uM; for inhibition at 33.33 µM: CAPAN-1, Conc. 33.33 uM; for inhibition at 100 µM: CAPAN-1, Conc. 100.00 uM
Protocol: (§2) A three-day assay was conducted. A cell suspension was prepared. Cell density was counted by an automated cell counter and then diluted to the required density, according to seeding density. 50 μL cells were seeded into 384-well plate in growth medium according to the plate map. The cells were incubated at 37 °C, 5% CO2 overnight.
(§3) 200× compound solution in DMSO was prepared and diluted with growth medium to 26× final concentration by addition of 26 μL 200× compounds to 174 μL growth medium. Then 2 μL of diluted compound solution was added to cells and the cell was incubated at 37 °C, 5% CO2 for 72 h.
(§4) The assay plate was equilibrated to room temperature prior to measurement. 15 μL of CellTiter-Glo Reagent was added into each well and the contents were mixed for 2 min on an orbital shaker to induce cell lysis. The cells were incubated at room temperature for 60 min to stabilize luminescent signal. Luminescence was recorded on the Envision system.

[2] = tested on: MDA-MB-436 (a BRCA-1-mutated breast cancer cell line); assay: Cell proliferation assay, three-day, CellTiter-Glo, MDA-MB-436; format: cell-based; conditions: for inhibition at 0.00508 µM / inhibition at 0.0152 µM / inhibition at 0.0457 µM / inhibition at 0.41 µM / inhibition at 1.23 µM / inhibition at 3.7 µM / inhibition at 11.11 µM / inhibition at 33.33 µM / inhibition at 100 µM / IC50: Homo sapiens; for inhibition at 0.00508 µM: MDA-MB-436, MDA-MB-436, Conc. 0.00508 uM; for inhibition at 0.0152 µM: MDA-MB-436, MDA-MB-436, Conc. 0.0152 uM; for inhibition at 0.0457 µM: MDA-MB-436, MDA-MB-436, Conc. 0.0457 uM; for inhibition at 0.41 µM: MDA-MB-436, MDA-MB-436, Conc. 0.41 uM; for inhibition at 1.23 µM: MDA-MB-436, MDA-MB-436, Conc. 1.23 uM; for inhibition at 3.7 µM: MDA-MB-436, MDA-MB-436, Conc. 3.70 uM
Protocol: as §2, §3, §4

[3] = Homo sapiens, CAPAN-1, 72 h, CellTiter-Glo, read-out: CAPAN-1 IC50
[4] = Homo sapiens, replicate 1, read-out: Inh % 1
[5] = Homo sapiens, replicate 2, read-out: Inh % 2
[6] = MDA-MB-436, 72 h, CellTiter-Glo, read-out: MDA-MB-436 IC50
[7] = MDA-MB-436, 72 h, supplement Summary sheet, read-out: IC50

## NC(=O)c1cccc2[nH]c(C3CCN(CC(=O)Nc4ccccc4)C3)nc12 (stereo not shown) [Compound 5ca, 2-(1-(2-Oxo-2-(phenylamino)ethyl)pyrrolidin-3-yl)-1H-benzo[d]imidazole-4-carboxamide]
PARP-1; supplement sheet, read-out: 10 nM inhibition% PAPR-1
  inhibition at 0.01 µM: 17.6%
PARP-1; read-out: PARP-1 Inhibition % (10 nM)
  inhibition at 0.01 µM: 17.6%
PARP-2; supplement sheet, read-out: 10 nM inhibition% PAPR-2
  inhibition at 0.01 µM: 34.5%
PARP-2; read-out: PARP-2 Inhibition % (10 nM)
  inhibition at 0.01 µM: 34.5%
[1]; plate 1
  Bottom: 11.48
  HillSlope: 1.045
  Top: = 100.0
[1]; CAPAN-1, curve fit, plate 1
  LogIC50: 2.027 Log (uM)
[1]; [3]
  IC50: > 100000 nM
[1]; Homo sapiens, CAPAN-1, 0.00508 uM, replicate 1, read-out: Inh % 1
  inhibition at 0.00508 µM: -2.6%
[1]; Homo sapiens, CAPAN-1, 0.00508 uM, replicate 2, read-out: Inh % 2
  inhibition at 0.00508 µM: 19.1%
[1]; Homo sapiens, CAPAN-1, 0.0152 uM, replicate 1, read-out: Inh % 1
  inhibition at 0.0152 µM: -2.3%
[1]; Homo sapiens, CAPAN-1, 0.0152 uM, replicate 2, read-out: Inh % 2
  inhibition at 0.0152 µM: 9.8%
[1]; Homo sapiens, CAPAN-1, 0.0457 uM, replicate 1, read-out: Inh % 1
  inhibition at 0.0457 µM: 6.6%
[1]; Homo sapiens, CAPAN-1, 0.0457 uM, replicate 2, read-out: Inh % 2
  inhibition at 0.0457 µM: 22%
[1]; Homo sapiens, CAPAN-1, 0.14 uM, replicate 1, read-out: Inh % 1
  inhibition at […]: 7.4%
[1]; Homo sapiens, CAPAN-1, 0.14 uM, replicate 2, read-out: Inh % 2
  inhibition at […]: 15.6%
[1]; Homo sapiens, CAPAN-1, 0.41 uM, replicate 1, read-out: Inh % 1
  inhibition at 0.41 µM: 22.5%
[1]; Homo sapiens, CAPAN-1, 0.41 uM, replicate 2, read-out: Inh % 2
  inhibition at 0.41 µM: 10.9%
[1]; Homo sapiens, CAPAN-1, 1.23 uM, replicate 1, read-out: Inh % 1
  inhibition at 1.23 µM: 21.1%
[1]; Homo sapiens, CAPAN-1, 1.23 uM, replicate 2, read-out: Inh % 2
  inhibition at 1.23 µM: 9.6%
[1]; Homo sapiens, CAPAN-1, 3.70 uM, replicate 1, read-out: Inh % 1
  inhibition at 3.7 µM: 8.2%
[1]; Homo sapiens, CAPAN-1, 3.70 uM, replicate 2, read-out: Inh % 2
  inhibition at 3.7 µM: 19.9%
[1]; [4]
  inhibition at 11.11 µM: 22.1%
  inhibition at 33.33 µM: 29.2%
  inhibition at 100 µM: 59.9%
[1]; [5]
  inhibition at 11.11 µM: 20.4%
  inhibition at 33.33 µM: 28.3%
  inhibition at 100 µM: 51.1%
[2]; replicate 1, read-out: Inh % 1
  inhibition at 0.00508 µM: -8.8%
  inhibition at 0.0152 µM: -0.8%
  inhibition at 0.0457 µM: -1.6%
  inhibition at 0.41 µM: 2.8%
  inhibition at 1.23 µM: 5.5%
  inhibition at 3.7 µM: 10.4%
[2]; replicate 2, read-out: Inh % 2
  inhibition at 0.00508 µM: -5.8%
  inhibition at 0.0152 µM: -6.8%
  inhibition at 0.0457 µM: -6.8%
  inhibition at 0.41 µM: -7.6%
  inhibition at 1.23 µM: -1.8%
  inhibition at 3.7 µM: 0.639%
[2]; MDA-MB-436, MDA-MB-436, Conc. 11.11 uM, duplicate wells (Inh % 1, Inh % 2), read-out: Inh %
  inhibition at 11.11 µM: 15.1%
[2]; MDA-MB-436, MDA-MB-436, Conc. 33.33 uM, duplicate wells (Inh % 1, Inh % 2), read-out: Inh %
  inhibition at 33.33 µM: 68.9%
[2]; MDA-MB-436, MDA-MB-436, Conc. 100.00 uM, duplicate wells (Inh % 1, Inh % 2), read-out: Inh %
  inhibition at 100 µM: 93.3%
[2]; [6]
  IC50: 22.9 µM
[2]; [7]
  IC50: 22.9 µM
[2]; MDA-MB-436, curve fit list, no unit in the cell, concentration in uM, read-out: IC50
  IC50: 22.9 µM
[2]; MDA-MB-436, Conc. 11.11 uM, duplicate wells (Inh % 1, Inh % 2)
  Inh %: 9.5%
[2]; MDA-MB-436, Conc. 33.33 uM, duplicate wells (Inh % 1, Inh % 2)
  Inh %: 56.4%
[2]; MDA-MB-436, Conc. 100.00 uM, duplicate wells (Inh % 1, Inh % 2)
  Inh %: 81.3%
[2]; MDA-MB-436, curve fit parameter (Inh %)
  Bottom: -3.40
[2]; MDA-MB-436, curve fit parameter (Inh %), '= 100.0' is a constrained value
  Top: 92.23
[2]; MDA-MB-436, curve fit, concentration axis Log (uM)
  LogIC50: 1.36

## CN[C@@H]1C[C@H]2O[C@@](C)([C@@H]1OC)n1c3ccccc3c3c4c(c5c6ccccc6n2c5c31)C(=O)NC4 [STS, reference compound]
[1]; CAPAN-1, 72 h, supplement Summary sheet, read-out: IC50
  IC50: 64.7 nM
[1]; plate 1
  Bottom: 8.442 and 8.44
  HillSlope: 0.6137 and 0.61
  Top: 105.1
[1]; CAPAN-1, curve fit, plate 1, read-out: IC50
  IC50: 64.7 nM

## O=C(c1cc(Cc2n[nH]c(=O)c3ccccc23)ccc1F)N1CCN(C(=O)C2CC2)CC1 [pc2, Olaparib, reference compound]
[1]; 72 h, CellTiter-Glo
  CAPAN-1 IC50 (μM): low potency
[1]; CAPAN-1, curve-fit output, concentration axis Log (uM)
  LogIC50: 2.033
[1]; [3]
  IC50: > 100000 nM
[1]; Homo sapiens, CAPAN-1, Conc. 0.00508 uM, replicate 1, read-out: Inh % 1
  inhibition at 0.00508 µM: 1.8%
[1]; Homo sapiens, CAPAN-1, Conc. 0.00508 uM, replicate 2, read-out: Inh % 2
  inhibition at 0.00508 µM: -2%
[1]; Homo sapiens, CAPAN-1, Conc. 0.0152 uM, replicate 1, read-out: Inh % 1
  inhibition at 0.0152 µM: 5.2%
[1]; Homo sapiens, CAPAN-1, Conc. 0.0152 uM, replicate 2, read-out: Inh % 2
  inhibition at 0.0152 µM: -2.3%
[1]; Homo sapiens, CAPAN-1, Conc. 0.0457 uM, replicate 1, read-out: Inh % 1
  inhibition at 0.0457 µM: -6.9%
[1]; Homo sapiens, CAPAN-1, Conc. 0.0457 uM, replicate 2, read-out: Inh % 2
  inhibition at 0.0457 µM: 0.662%
[1]; Homo sapiens, CAPAN-1, Conc. 0.14 uM, replicate 1, read-out: Inh % 1
  inhibition at […]: 0.107%
[1]; Homo sapiens, CAPAN-1, Conc. 0.14 uM, replicate 2, read-out: Inh % 2
  inhibition at […]: 6.2%
[1]; Homo sapiens, CAPAN-1, Conc. 0.41 uM, replicate 1, read-out: Inh % 1
  inhibition at 0.41 µM: 4.3%
[1]; Homo sapiens, CAPAN-1, Conc. 0.41 uM, replicate 2, read-out: Inh % 2
  inhibition at 0.41 µM: 7.9%
[1]; Homo sapiens, CAPAN-1, Conc. 1.23 uM, replicate 1, read-out: Inh % 1
  inhibition at 1.23 µM: 15.1%
[1]; Homo sapiens, CAPAN-1, Conc. 1.23 uM, replicate 2, read-out: Inh % 2
  inhibition at 1.23 µM: 0.6%
[1]; Homo sapiens, CAPAN-1, Conc. 3.70 uM, replicate 1, read-out: Inh % 1
  inhibition at 3.7 µM: 21.3%
[1]; Homo sapiens, CAPAN-1, Conc. 3.70 uM, replicate 2, read-out: Inh % 2
  inhibition at 3.7 µM: 11.6%
[1]; [4]
  inhibition at 11.11 µM: 18.6%
  inhibition at 33.33 µM: 38.5%
  inhibition at 100 µM: 48.2%
[1]; [5]
  inhibition at 11.11 µM: 23.5%
  inhibition at 33.33 µM: 34.2%
  inhibition at 100 µM: 47.5%
[2]; replicate 1, read-out: Inh % 1
  inhibition at 0.00508 µM: 4.1%
  inhibition at 0.0152 µM: 1.7%
  inhibition at 0.0457 µM: -5.7%
  inhibition at 0.41 µM: 0.181%
  inhibition at 1.23 µM: 4%
  inhibition at 3.7 µM: 12.4%
[2]; replicate 2, read-out: Inh % 2
  inhibition at 0.00508 µM: -2.3%
  inhibition at 0.0152 µM: -1.2%
  inhibition at 0.0457 µM: -2.8%
  inhibition at 0.41 µM: 5.7%
  inhibition at 1.23 µM: 2%
  inhibition at 3.7 µM: 13.5%
[2]; MDA-MB-436, MDA-MB-436, Conc. 11.11 uM, replicate 1, read-out: Inh % 1
  inhibition at 11.11 µM: 23.3%
[2]; MDA-MB-436, MDA-MB-436, Conc. 11.11 uM, replicate 2, read-out: Inh % 2
  inhibition at 11.11 µM: 24.2%
[2]; MDA-MB-436, MDA-MB-436, Conc. 33.33 uM, replicate 1, read-out: Inh % 1
  inhibition at 33.33 µM: 50.1%
[2]; MDA-MB-436, MDA-MB-436, Conc. 33.33 uM, replicate 2, read-out: Inh % 2
  inhibition at 33.33 µM: 43.1%
[2]; MDA-MB-436, MDA-MB-436, Conc. 100.00 uM, replicate 1, read-out: Inh % 1
  inhibition at 100 µM: 92.4%
[2]; MDA-MB-436, MDA-MB-436, Conc. 100.00 uM, replicate 2, read-out: Inh % 2
  inhibition at 100 µM: 90.9%
[2]; [6]
  IC50: 30.2 µM
[2]; [7]
  IC50: 30.2 µM
[2]; MDA-MB-436, curve-fit parameter list, concentrations in uM, read-out: IC50
  IC50: 30.2 µM
[2]; MDA-MB-436, curve-fit parameter list, Log (uM)
  LogIC50: 1.481
